Source: patent US20080299060A1, “Pharmaceutical Composition for the Treatment of Nail Diseases” (TLT MEDICAL LTD., priority 2006, published 2008)

Assay: In-vitro nail permeation assay (Franz type diffusion cells)
Format: in vitro ADME, human
Conditions: for Mean value of terbinafine concentration in the 5 mL receptor chamber of the Franz cell, Day 3 / Mean value of terbinafine concentration in the 5 mL receptor chamber of the Franz cell, Day 5: n=3
Excerpt: Permeation fluxes of active substances, determined from nail permeation assays, are used to predict the efficacy of the active substances in a clinical situation. A permeation assay similar to the one reported by Franz (T. J. Franz, Dermatology, 184, 18-20, 1992) was used to investigate the applicability of the present invention to the treatment of onychomycosis and, in particular, to evaluate the permeation fluxes of a terbinafine containing pharmaceutical composition and a protective layer in laser pre-treated human cadaver great toenails. The experimental setup emulates the clinical situation where the pharmaceutical composition remains liquid for an extended period of time inside the nail holes in the case of laser pretreated nails to maximize the diffusion of the terbinafine into the nail.
Human cadaver great toenails selected for the tests were soaked in physiological buffer solution for several hours before starting the assay. Nails were prepared for the assay by removal of epidermal residues on the ventral side. Round nail discs of 16 mm in diameter were punched. […] Nails were masked on the dorsal side by a silicon mounting ring leaving a nail area of 10 mm in diameter where the nails were exposed to the pharmaceutical composition and the protective layer.
Three groups of nail samples were investigated.
Group 1: Untreated nail samples were used in this group which is the control group. These nails were exposed to 25 μL of a lacquer containing 9% w/w terbinafine once a day.
(§1) Group 2: In this group perforated nails were used. These nails were exposed to 25 μL of a 10% w/w terbinafine in ethanol solution once a day. After the application of the 10% w/w ethanolic solution to these nails, nails were covered with 25 μL of a lacquer containing 9% w/w terbinafine to form the protective layer according to the present invention.
as §1, with “3:” for “2:”, “nails, these” for “nails,”, “without” for “containing 9% w/w”
Franz type diffusion cells made of glass were used in the assays having a volume of ca. 5 mL using demineralized water as receptor buffer. Nail samples were fixed on the Franz cells with sealing silicone and Teflon discs pressed with a metallic spring loading system. In this way the ventral sides of the nails were in contact with demineralized water in the cell while the dorsal sides were in contact with the pharmaceutical formulations and protective layer according to Table 1. Diffusion cells were kept at 32° C. during the permeation assays.
Cleaning of the nail sample and dissolution of previous layers of pharmaceutical composition and protective layers were performed prior to every reapplication of the pharmaceutical composition and the protective layer. For this purpose 100 microliters of dissolvent were applied to every nail sample. Subsequently, the nail samples were rubbed with a cleaning brush to ensure an exhaustive cleaning and then were dried with a cotton swab to remove with the dissolvent also the old components of the pharmaceutical solution and the protective layer. 25 microliters of the pharmaceutical composition were then applied to the exposed nail area and distributed with the application brush.
Samples of receptor fluid were collected at various time points and analyzed by liquid chromatography and mass spectroscopy. The removed sample volume was replaced by demineralized water. This dilution effects were accounted in the final determination of the permeation fluxes.

[1] = Group 1 (control): untreated nails, 9% w/w terbinafine lacquer once a day, dissolvent ethanol, 32° C.
[2] = Group 2: laser pretreated nails (400 partial orifices/cm^2), 10% w/w terbinafine in ethanol once a day, protective layer 9% w/w terbinafine lacquer
[3] = Group 3: laser pretreated nails (400 partial orifices/cm^2), 10% w/w terbinafine in ethanol once a day, protective layer lacquer without terbinafine

In the case of CN(C/C=C/C#CC(C)(C)C)Cc1cccc2ccccc12 [terbinafine], the “Permeation Fluxes” value (Group 1 (control): untreated nails, 9% w/w terbinafine lacquer once a day, dissolvent ethanol) is reported as 4.34 ng/cm^2/h, the “Mean value of terbinafine concentration in the 5 mL receptor chamber of the Franz cell, Day 3” value (“Mean value of terbinafine concentration … Day 3” below) [1] is reported as 82.4 ng/mL and the “Mean value of terbinafine concentration in the 5 mL receptor chamber of the Franz cell, Day 5” value (shortened to “Mean value of terbinafine concentration … Day 5”) [1] is reported as 115.1 ng/mL. The “increase in the permeation fluxes as compared to the control group (group 1)” value (Group 2 (protective layer also contains terbinafine) vs group 1) was 34 fold, the “Mean value of terbinafine concentration … Day 3” value [2] was 305.2 ng/mL and the “Mean value of terbinafine concentration … Day 5” value [2] was 1432.9 ng/mL. For the same molecule, the “Permeation Fluxes” value (Group 2: laser pretreated nails, 10% w/w terbinafine in ethanol once a day, protective layer 9% w/w terbinafine lacquer) was 149.6 ng/cm^2/h, the “increase in the permeation fluxes as compared to the control group (group 1)” value (Group 3 (protective layer does not contain terbinafine) vs group 1) was 5 fold and the “Mean value of terbinafine concentration … Day 3” value [3] was 94.5 ng/mL. The “Mean value of terbinafine concentration … Day 5” value [3] was 272.6 ng/mL and the “Permeation Fluxes” value (Group 3: laser pretreated nails, 10% w/w terbinafine in ethanol once a day, protective layer lacquer without terbinafine) was 23.6 ng/cm^2/h.
